Measurements: patent US11180486B2, “Indolylkojyl methane analogues, process of preparation thereof and use as inhibitor of cancer cells invasion and metastasis” (Council of Scientific & Industrial Research, priority 2017, dated 2021)

Test system: MMP-2
Assay: Immunoblotting, expression of MMP-2
Format: cell-based, human
Details: MDA-MB-231 cells; dose dependent
Experimental: Immunoblotting. MDA-MB-231 and MCF7 cells (0.5×10^6) were plated in six well plates for overnight in a humidified CO2 incubator and then exposed to varying concentrations of 5 (50, 100 and 200 nM) for 24 h along with vehicle (dose dependent study) and 200 nM of 5 for various time points like; 0, 6, 12, 24 and 48 h (time dependent study). Cells were then harvested, washed with chilled PBS and lysed with lysis buffer (HEPES 1 mM, KCl 60 mM, NP-40 0.3%, EDTA 1 mM, DTT 1 mM, sodium orthovanadate 1 mM, PMSF 0.1 mM and cocktail protease inhibitor). The cell extractions were centrifuged at 12,000 rpm for 10 min at 4° C. Protein concentration was measured by the standard Bradford method. An equal amount (20 μg) of protein from each sample was subjected to SDS-PAGE, and proteins were transferred to PVDF membranes (PALL), blocked with 5% (w/v) non-fat milk in PBS containing 0.1% Tween-20, probed with relevant antibodies (1:1000 dilution) for 3 h at room temperature or overnight at 4° C., and subsequently washed and probed with species-specific secondary antibodies coupled to horseradish peroxidase. Immunoreactive proteins were detected by Enhanced Chemiluminescence Plus (Thermo) (Rah et al., 2012, PloS one, 7(9), p.e44039.).

SMILES: CCCCCCCC(c1oc(CO)cc(=O)c1O)c1c[nH]c2ccccc12 (stereo not shown) [Compound 5, 2-{1-(1H-indol-3-yl)octyl}-3-hydroxy-6-(hydroxymethyl)-4H-pyran-4-one]
- expression of MMP-2: downregulated
